Test results from the NIST ThermoML archive (doi:10.1021/je060271a).
Numbers after ± are expanded uncertainties.

Conditions: 303.15 K, Liquid, Vibrating tube method

CCCCCCC(=O)OCC(COC(=O)CCCCCC)(COC(=O)CCCCCC)COC(=O)CCCCCC [pentaerythritol tetraheptanoate]
Conditions | mass density [kg/m3]
21619 kPa | 983.7 ± 1.2
21662 kPa | 983.7 ± 1.2
21713 kPa | 983.7 ± 1.2
21752 kPa | 983.7 ± 1.2
21789 kPa | 983.5 ± 1.2
21831 kPa | 983.9 ± 1.2
21867 kPa | 983.8 ± 1.2
21902 kPa | 983.8 ± 1.2
22017 kPa | 983.9 ± 1.2
22097 kPa | 984 ± 1.2
22133 kPa | 983.9 ± 1.2
22169 kPa | 984.1 ± 1.2
22213 kPa | 984 ± 1.2
22250 kPa | 983.9 ± 1.2
22286 kPa | 984.1 ± 1.2
22330 kPa | 984.1 ± 1.2
22368 kPa | 984.2 ± 1.2
22406 kPa | 984.1 ± 1.2
22450 kPa | 984.2 ± 1.2
22567 kPa | 984.2 ± 1.2
22651 kPa | 984.2 ± 1.2
22689 kPa | 984.3 ± 1.2
22735 kPa | 984.3 ± 1.2
22774 kPa | 984.3 ± 1.2
22813 kPa | 984.3 ± 1.2
22853 kPa | 984.3 ± 1.2
22901 kPa | 984.4 ± 1.2
23031 kPa | 984.5 ± 1.2
23066 kPa | 984.4 ± 1.2
23098 kPa | 984.5 ± 1.2
23130 kPa | 984.5 ± 1.2
23162 kPa | 984.4 ± 1.2
23201 kPa | 984.5 ± 1.2
23233 kPa | 984.6 ± 1.2
23266 kPa | 984.7 ± 1.2
23304 kPa | 984.6 ± 1.2
23337 kPa | 984.5 ± 1.2
23376 kPa | 984.7 ± 1.2
23409 kPa | 984.6 ± 1.2
23442 kPa | 984.6 ± 1.2
23475 kPa | 984.8 ± 1.2
23516 kPa | 984.8 ± 1.2
23549 kPa | 984.7 ± 1.2
23582 kPa | 984.8 ± 1.2
23622 kPa | 984.7 ± 1.2
23797 kPa | 984.9 ± 1.2
23831 kPa | 985 ± 1.2
23873 kPa | 984.9 ± 1.2
23908 kPa | 985 ± 1.2
23943 kPa | 985 ± 1.2
23985 kPa | 985 ± 1.2
24019 kPa | 984.9 ± 1.2
24054 kPa | 985 ± 1.2
24201 kPa | 985.1 ± 1.2
24243 kPa | 985.2 ± 1.2
24278 kPa | 985.2 ± 1.2
24320 kPa | 985.2 ± 1.2
24392 kPa | 985.2 ± 1.2
24436 kPa | 985.2 ± 1.2
24472 kPa | 985.4 ± 1.2
24509 kPa | 985.1 ± 1.2
24545 kPa | 985.2 ± 1.2
24588 kPa | 985.3 ± 1.2
24624 kPa | 985.4 ± 1.2
24661 kPa | 985.3 ± 1.2
24706 kPa | 985.3 ± 1.2
24743 kPa | 985.5 ± 1.2
24780 kPa | 985.5 ± 1.2
24825 kPa | 985.4 ± 1.2
24863 kPa | 985.4 ± 1.2
24901 kPa | 985.4 ± 1.2
24947 kPa | 985.5 ± 1.2
24984 kPa | 985.5 ± 1.2
25022 kPa | 985.6 ± 1.2
25060 kPa | 985.5 ± 1.2
25106 kPa | 985.6 ± 1.2
25144 kPa | 985.5 ± 1.2
25182 kPa | 985.7 ± 1.2
25228 kPa | 985.7 ± 1.2
25267 kPa | 985.6 ± 1.2
25306 kPa | 985.6 ± 1.2
25353 kPa | 985.7 ± 1.2
25392 kPa | 985.7 ± 1.2
25431 kPa | 985.8 ± 1.2
25472 kPa | 985.7 ± 1.2
25520 kPa | 985.8 ± 1.2
25560 kPa | 986 ± 1.2
25601 kPa | 986 ± 1.2
25648 kPa | 985.9 ± 1.2
25688 kPa | 985.8 ± 1.2
25729 kPa | 985.9 ± 1.2
25778 kPa | 985.9 ± 1.2
25818 kPa | 986 ± 1.2
25860 kPa | 986 ± 1.2
25901 kPa | 986.1 ± 1.2
25951 kPa | 986 ± 1.2
25994 kPa | 986 ± 1.2
26038 kPa | 986 ± 1.2
26079 kPa | 986.1 ± 1.2
26130 kPa | 986.1 ± 1.2
26172 kPa | 986.2 ± 1.2
26215 kPa | 986.2 ± 1.2
26266 kPa | 986.2 ± 1.2
26309 kPa | 986.3 ± 1.2
26347 kPa | 986.3 ± 1.2
26391 kPa | 986.3 ± 1.2
26429 kPa | 986.4 ± 1.2
26466 kPa | 986.4 ± 1.2
26512 kPa | 986.4 ± 1.2
26551 kPa | 986.4 ± 1.2
26590 kPa | 986.3 ± 1.2
26628 kPa | 986.5 ± 1.2
26666 kPa | 986.5 ± 1.2
26712 kPa | 986.5 ± 1.2
26749 kPa | 986.4 ± 1.2
26795 kPa | 986.4 ± 1.2
26834 kPa | 986.6 ± 1.2
26872 kPa | 986.6 ± 1.2
26910 kPa | 986.6 ± 1.2
26957 kPa | 986.6 ± 1.2
26996 kPa | 986.6 ± 1.2
27043 kPa | 986.5 ± 1.2
27083 kPa | 986.7 ± 1.2
27122 kPa | 986.7 ± 1.2
27169 kPa | 986.7 ± 1.2
27209 kPa | 986.8 ± 1.2
27249 kPa | 986.7 ± 1.2
27289 kPa | 987 ± 1.2
27337 kPa | 986.8 ± 1.2
27376 kPa | 986.8 ± 1.2
27425 kPa | 986.9 ± 1.2
27465 kPa | 987 ± 1.2
27506 kPa | 986.9 ± 1.2
27555 kPa | 986.8 ± 1.2
27596 kPa | 986.9 ± 1.2
27638 kPa | 986.9 ± 1.2
27679 kPa | 987.1 ± 1.2
27728 kPa | 987 ± 1.2
27770 kPa | 987 ± 1.2
27811 kPa | 987.1 ± 1.2
27861 kPa | 987.1 ± 1.2
27904 kPa | 987 ± 1.2
27954 kPa | 987.1 ± 1.2
27997 kPa | 987.2 ± 1.2
28082 kPa | 987.3 ± 1.2
28133 kPa | 987.4 ± 1.2
28176 kPa | 987.3 ± 1.2
28221 kPa | 987.4 ± 1.2
28273 kPa | 987.3 ± 1.2
28316 kPa | 987.3 ± 1.2
28360 kPa | 987.4 ± 1.2
28404 kPa | 987.3 ± 1.2
28457 kPa | 987.4 ± 1.2
28501 kPa | 987.5 ± 1.2
28545 kPa | 987.5 ± 1.2
28598 kPa | 987.5 ± 1.2
28642 kPa | 987.5 ± 1.2
28687 kPa | 987.5 ± 1.2
28740 kPa | 987.6 ± 1.2
28785 kPa | 987.6 ± 1.2
28832 kPa | 987.7 ± 1.2
28886 kPa | 987.6 ± 1.2
28932 kPa | 987.7 ± 1.2
28977 kPa | 987.6 ± 1.2
29023 kPa | 987.9 ± 1.2
29079 kPa | 987.7 ± 1.2
29125 kPa | 987.7 ± 1.2
29181 kPa | 987.8 ± 1.2
29227 kPa | 987.9 ± 1.2
29274 kPa | 987.9 ± 1.2
29321 kPa | 987.9 ± 1.2
29379 kPa | 987.9 ± 1.2
29475 kPa | 988 ± 1.2
29523 kPa | 988.1 ± 1.2
29581 kPa | 988 ± 1.2
29630 kPa | 988 ± 1.2
29679 kPa | 988.1 ± 1.2
29739 kPa | 988.1 ± 1.2
29790 kPa | 988.1 ± 1.2
29841 kPa | 988.3 ± 1.2
29903 kPa | 988.1 ± 1.2
29949 kPa | 988.3 ± 1.2
29986 kPa | 988.3 ± 1.2
30029 kPa | 988.3 ± 1.2
30067 kPa | 988.3 ± 1.2
30103 kPa | 988.3 ± 1.2
30138 kPa | 988.3 ± 1.2
30182 kPa | 988.4 ± 1.2
30218 kPa | 988.3 ± 1.2
30253 kPa | 988.3 ± 1.2
30297 kPa | 988.2 ± 1.2
30334 kPa | 988.4 ± 1.2
30370 kPa | 988.5 ± 1.2
30407 kPa | 988.5 ± 1.2
30451 kPa | 988.5 ± 1.2
30489 kPa | 988.5 ± 1.2
30527 kPa | 988.5 ± 1.2
30576 kPa | 988.6 ± 1.2
30613 kPa | 988.5 ± 1.2
30651 kPa | 988.6 ± 1.2
30698 kPa | 988.6 ± 1.2
30738 kPa | 988.8 ± 1.2
30778 kPa | 988.7 ± 1.2
30814 kPa | 988.7 ± 1.2
30846 kPa | 988.7 ± 1.2
30873 kPa | 988.8 ± 1.2
30905 kPa | 988.7 ± 1.2
30932 kPa | 988.8 ± 1.2
30958 kPa | 988.8 ± 1.2
30990 kPa | 988.8 ± 1.2
31018 kPa | 988.8 ± 1.2
31045 kPa | 988.8 ± 1.2
31072 kPa | 988.9 ± 1.2
31105 kPa | 988.9 ± 1.2
31132 kPa | 988.9 ± 1.2
31159 kPa | 988.8 ± 1.2
31192 kPa | 989 ± 1.2
31220 kPa | 988.9 ± 1.2
31252 kPa | 989 ± 1.2
31280 kPa | 988.9 ± 1.2
31308 kPa | 989.1 ± 1.2
31335 kPa | 989 ± 1.2
31369 kPa | 989.1 ± 1.2
31398 kPa | 988.8 ± 1.2
